# Laboratory results as given in patent US9624170B2, “4-(piperrazin-1-yl)-pyrrolidin-2-one compounds as monoacylglycerol lipase (MAGL) inhibitors” (TAKEDA PHARMACEUTICAL COMPANY LIMITED, priority 2013, dated 2017).
# Target: T1, human MAGL (His-hMAGL) (Homo sapiens, UniProt Q99685)
# T1 construct: made in house; host or cells: Escherichia coli BL21(DE3)
# T1 sequence (Q99685 1-303): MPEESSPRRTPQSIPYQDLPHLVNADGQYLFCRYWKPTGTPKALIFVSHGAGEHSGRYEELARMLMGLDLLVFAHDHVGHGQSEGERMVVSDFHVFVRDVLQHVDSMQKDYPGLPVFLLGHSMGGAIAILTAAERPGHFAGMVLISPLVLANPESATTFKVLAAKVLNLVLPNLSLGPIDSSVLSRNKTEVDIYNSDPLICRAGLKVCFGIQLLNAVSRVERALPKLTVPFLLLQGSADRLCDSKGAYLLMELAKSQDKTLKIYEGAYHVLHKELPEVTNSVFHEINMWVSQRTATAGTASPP
# Test: Measurement of MAGL inhibitory activity by mass spectrometry
# Format: biochemical
# Details: MAGL inhibitory rate, test compound 10 μM, His-hMAGL, substrate 2-arachidonylglycerol, RapidFire-mass spectrometry
# In short: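 His-tagged human MAGL was reacted with 150 μM 2-arachidonylglycerol substrate (stock, added by 5 μL) for 10 min at room temperature, then stopped with formic acid. Arachidonic acid product was quantified by RapidFire–triple-quadrupole MS in negative SRM mode, corrected by arachidonic acid-d8, and converted to percent inhibition.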
row,inhibition at 10 µM,Compound
1,96%,"O=C(c1nccs1)N1CCN(C2CC(=O)N(c3ccc4c(c3)CCN4C(=O)C(F)(F)F)C2)CC1 (centres unmarked) [Example 373, 4-(4-(1,3-Thiazol-2-ylcarbonyl)piperazin-1-yl)-1-(1-(trifluoroacetyl)-2,3-dihydro-1H-indol-5-yl)pyrrolidin-2-one]"
2,95%,"O=C(c1nccs1)N1CCN(C2CC(=O)N(c3ccc4c(c3)CCN4C3CC3)C2)CC1 (centres unmarked) [Example 375, 1-(1-Cyclopropyl-2,3-dihydro-1H-indol-5-yl)-4-(4-(1,3-thiazol-2-ylcarbonyl)piperazin-1-yl)pyrrolidin-2-one]"
3,99%,"CC(C)(C)CC(=O)N1CCc2cc(N3CC(N4CCN(C(=O)c5nccs5)CC4)CC3=O)ccc21 (centres unmarked) [Example 382, 1-(1-(3,3-Dimethylbutanoyl)-2,3-dihydro-1H-indol-5-yl)-4-(4-(1,3-thiazol-2-ylcarbonyl)piperazin-1-yl)pyrrolidin-2-one]"
4,99%,"O=C(c1nccs1)N1CCN(C2CC(=O)N(c3ccc4c(c3)CCN4C(=O)Cc3ccccc3)C2)CC1 (centres unmarked) [Example 392, 1-(1-(phenylacetyl)-2,3-dihydro-1H-indol-5-yl)-4-(4-(1,3-thiazol-2-ylcarbonyl)piperazin-1-yl)pyrrolidin-2-one]"
5,93%,"O=C(c1nccs1)N1CCN(C2CC(=O)N(c3ccc4c(c3)CCN4C(=O)Cc3ccc(Cl)cc3)C2)CC1 (centres unmarked) [Example 393, 1-(1-((4-chlorophenyl)acetyl)-2,3-dihydro-1H-indol-5-yl)-4-(4-(1,3-thiazol-2-ylcarbonyl)piperazin-1-yl)pyrrolidin-2-one]"
6,98%,"O=C(c1nccs1)N1CCN(C2CC(=O)N(c3ccc4c(c3)CCN4C(=O)Cc3cccc(Cl)c3)C2)CC1 (centres unmarked) [Example 394, 1-(1-((3-Chlorophenyl)acetyl)-2,3-dihydro-1H-indol-5-yl)-4-(4-(1,3-thiazol-2-ylcarbonyl)piperazin-1-yl)pyrrolidin-2-one]"
7,102%,"O=C(c1nccs1)N1CCN(C2CC(=O)N(c3ccc4c(c3)CCN4C(=O)Cc3ccccc3Cl)C2)CC1 (centres unmarked) [Example 395, 1-(1-((2-chlorophenyl)acetyl)-2,3-dihydro-1H-indol-5-yl)-4-(4-(1,3-thiazol-2-ylcarbonyl)piperazin-1-yl)pyrrolidin-2-one]"
8,101%,"CC(C)CC(=O)N1CCc2cc(N3CC(N4CCN(C(=O)c5nccs5)CC4)CC3=O)ccc21 (centres unmarked) [Example 397, 1-(1-(3-methylbutanoyl)-2,3-dihydro-1H-indol-5-yl)-4-(4-(1,3-thiazol-2-ylcarbonyl)piperazin-1-yl)pyrrolidin-2-one]"
9,100%,"O=C(c1nccs1)N1CCN(C2CC(=O)N(c3ccc4c(c3)CCN4C(=O)CC3CC3)C2)CC1 (centres unmarked) [Example 398, 1-(1-(cyclopropylacetyl)-2,3-dihydro-1H-indol-5-yl)-4-(4-(1,3-thiazol-2-ylcarbonyl)piperazin-1-yl)pyrrolidin-2-one]"
10,95%,"O=C(c1nccs1)N1CCN(C2CC(=O)N(c3ccc4c(c3)CCN4C(=O)CC(F)(F)F)C2)CC1 (centres unmarked) [Example 399, 4-(4-(1,3-thiazol-2-ylcarbonyl)piperazin-1-yl)-1-(1-(3,3,3-trifluoropropanoyl)-2,3-dihydro-1H-indol-5-yl)pyrrolidin-2-one]"
11,96%,"O=C(c1nccs1)N1CCN(C2CC(=O)N(c3ccc4c(c3)CCN4C(=O)C3CCOCC3)C2)CC1 (centres unmarked) [Example 400, 1-(1-(tetrahydro-2H-pyran-4-ylcarbonyl)-2,3-dihydro-1H-indol-5-yl)-4-(4-(1,3-thiazol-2-ylcarbonyl)piperazin-1-yl)pyrrolidin-2-one]"
12,94%,"O=C(c1nccs1)N1CCN(C2CC(=O)N(c3ccc4c(c3)CCN4C(=O)CC3CCOCC3)C2)CC1 (centres unmarked) [Example 401, 1-(1-(tetrahydro-2H-pyran-4-ylacetyl)-2,3-dihydro-1H-indol-5-yl)-4-(4-(1,3-thiazol-2-ylcarbonyl)piperazin-1-yl)pyrrolidin-2-one]"

# The next lines start with the molecule.
row,Compound,inhibition at 10 µM
1,"O=C(c1nccs1)N1CCN(C2CC(=O)N(c3ccc4c(c3)CCN4)C2)CC1 (centres unmarked) [Example 374, 1-(2,3-Dihydro-1H-indol-5-yl)-4-(4-(1,3-thiazol-2-ylcarbonyl)piperazin-1-yl)pyrrolidin-2-one]",81%
2,"O=C1CC(N2CCN(c3ncccn3)CC2)CN1c1ccc2c(c1)CCN2c1ccnc(C(F)(F)F)c1 (centres unmarked) [Example 377, 4-(4-(pyrimidin-2-yl)piperazin-1-yl)-1-(1-(2-(trifluoromethyl)pyridin-4-yl)-2,3-dihydro-1H-indol-5-yl)pyrrolidin-2-one]",97%
3,"O=C1CC(N2CCN(c3ncccn3)CC2)CN1c1ccc2c(c1)CCN2c1ncc(C(F)(F)F)cn1 (centres unmarked) [Example 378, 4-(4-(Pyrimidin-2-yl)piperazin-1-yl)-1-(1-(5-(trifluoromethyl)pyrimidin-2-yl)-2,3-dihydro-1H-indol-5-yl)pyrrolidin-2-one]",95%
4,"O=C(c1nccs1)N1CCN(C2CC(=O)N(c3ccc4c(c3)CCN4c3ccc(C(F)(F)F)cn3)C2)CC1 (centres unmarked) [Example 383, 4-(4-(1,3-thiazol-2-ylcarbonyl)piperazin-1-yl)-1-(1-(5-(trifluoromethyl)pyridin-2-yl)-2,3-dihydro-1H-indol-5-yl)pyrrolidin-2-one]",98%
5,"O=C(c1cscn1)N1CCN([C@@H]2CC(=O)N(c3ccc4c(c3)CCN4c3ncc(C(F)(F)F)cn3)C2)CC1 [Example 384, (4R)-4-(4-(1,3-thiazol-4-ylcarbonyl)piperazin-1-yl)-1-(1-(5-(trifluoromethyl)pyrimidin-2-yl)-2,3-dihydro-1H-indol-5-yl)pyrrolidin-2-one]",99%
6,"O=C(c1nccs1)N1CCN([C@@H]2CC(=O)N(c3ccc4c(c3)CCN4c3cc(C(F)(F)F)ncn3)C2)CC1 [Example 385, (4R)-4-(4-(1,3-thiazol-2-ylcarbonyl)piperazin-1-yl)-1-(1-(6-(trifluoromethyl)pyrimidin-4-yl)-2,3-dihydro-1H-indol-5-yl)pyrrolidin-2-one]",100%
7,"O=C(c1nccs1)N1CCN(C2CC(=O)N(c3ccc4oc(-c5ccc(F)cc5)nc4c3)C2)CC1 (centres unmarked) [Example 386, 1-(2-(4-fluorophenyl)-1,3-benzoxazol-5-yl)-4-(4-(1,3-thiazol-2-ylcarbonyl)piperazin-1-yl)pyrrolidin-2-one]",99%
8,"O=C(c1nccs1)N1CCN(C2CC(=O)N(c3ccc4nc(-c5ccccc5)oc4c3)C2)CC1 (centres unmarked) [Example 387, 1-(2-phenyl-1,3-benzoxazol-6-yl)-4-(4-(1,3-thiazol-2-ylcarbonyl)piperazin-1-yl)pyrrolidin-2-one]",97%
9,"O=C(c1nccs1)N1CCN([C@@H]2CC(=O)N(c3ccc4c(c3)CCN4c3ccnc(C(F)(F)F)n3)C2)CC1 [Example 388, (4R)-4-(4-(1,3-thiazol-2-ylcarbonyl)piperazin-1-yl)-1-(1-(2-(trifluoromethyl)pyrimidin-4-yl)-2,3-dihydro-1H-indol-5-yl)pyrrolidin-2-one]",99%
10,"CC(C)(C)OC(=O)N1CCc2cc(N3CC(N4CCN(c5ncccn5)CC4)CC3=O)ccc21 (centres unmarked) [Example 389, tert-butyl 5-(2-oxo-4-(4-(pyrimidin-2-yl)piperazin-1-yl)pyrrolidin-1-yl)indoline-1-carboxylate]",98%
11,"O=C(c1nccs1)N1CCN([C@@H]2CC(=O)N(c3ccc4c(c3)CCN4c3cnc(C(F)(F)F)cn3)C2)CC1 [Example 390, (4R)-4-(4-(1,3-thiazol-2-ylcarbonyl)piperazin-1-yl)-1-(1-(5-(trifluoromethyl)pyrazin-2-yl)-2,3-dihydro-1H-indol-5-yl)pyrrolidin-2-one]",96%
12,"O=C(c1nccs1)N1CCN([C@@H]2CC(=O)N(c3ccc4c(c3)CCN4c3cnc(C(F)(F)F)nc3)C2)CC1 [Example 391, (4R)-4-(4-(1,3-thiazol-2-ylcarbonyl)piperazin-1-yl)-1-(1-(2-(trifluoromethyl)pyrimidin-5-yl)-2,3-dihydro-1H-indol-5-yl)pyrrolidin-2-one]",90%
13,"O=C(c1nccs1)N1CCN(C2CC(=O)N(c3ccc4c(c3)CCN4C(=O)c3ccccc3)C2)CC1 (centres unmarked) [Example 396, 1-(1-benzoyl-2,3-dihydro-1H-indol-5-yl)-4-(4-(1,3-thiazol-2-ylcarbonyl)piperazin-1-yl)pyrrolidin-2-one]",97%
14,"O=C(c1nccs1)N1CCN([C@@H]2CC(=O)N(c3cc4ccn(-c5ccc(C(F)(F)F)cn5)c4cn3)C2)CC1 [Example 402, (4R)-4-(4-(1,3-thiazol-2-ylcarbonyl)piperazin-1-yl)-1-(1-(5-(trifluoromethyl)pyridin-2-yl)-1H-pyrrolo[2,3-c]pyridin-5-yl)pyrrolidin-2-one]",94%
15,"O=C1CC(N2CCN(c3ncccn3)CC2)CN1c1cc(F)cc(Br)c1 (centres unmarked) [Example 403, 1-(3-Bromo-5-fluorophenyl)-4-(4-(pyrimidin-2-yl)piperazin-1-yl)pyrrolidin-2-one]",91%
16,"Cc1ncccc1-c1cc(N2CC(N3CCN(c4ncccn4)CC3)CC2=O)ccc1F (centres unmarked) [Example 404, 1-(4-fluoro-3-(2-methylpyridin-3-yl)phenyl)-4-(4-(pyrimidin-2-yl)piperazin-1-yl)pyrrolidin-2-one]",96%
17,"O=C(c1cscn1)N1CCN([C@@H]2CC(=O)N(c3ccc4c(c3)CCN4c3ccc(C(F)(F)F)cc3)C2)CC1 [Example 405, (4R)-4-(4-(1,3-Thiazol-4-ylcarbonyl)piperazin-1-yl)-1-(1-(4-(trifluoromethyl)phenyl)-2,3-dihydro-1H-indol-5-yl)pyrrolidin-2-one]",103%
